Experimental findings from ChEMBL document CHEMBL3621058, “Synthesis and structure-activity studies of the V-ATPase inhibitor saliphenylhalamide (SaliPhe) and simplified analogs” (Bioorg Med Chem Lett, 2015) are described below.

Calls of active or inactive are those of the source. The calls are words filed in the database; no cut-off is given here. Some results are limits rather than exact numbers.

What is called IC50 is the concentration needed to halve the response being measured. A lower IC50 goes with higher potency.

Test [1] can be described thus: Inhibition of purified reconstituted bovine brain V-ATPase. On the set-up: species or system Bos taurus.
For another test, the system named is HCC4017. Description: Growth inhibition of human HCC4017 cells assessed as reduction in cell viability at 0.1 nM to 10 uM. Type of test: functional.
For another test, the species on record is Bos taurus. Briefly: Inhibition of purified reconstituted bovine brain V-ATPase at 2 uM.
Test [2] can be described thus: Inhibition of V-ATPase (unknown origin). On the set-up: species or system Homo sapiens.

`C[C@H]1C/C=C/Cc2cccc(O)c2C(=O)O[C@@H](C/C=C/NC(=O)C#Cc2ccccc2)C[C@H]1O` [SALIPHENYLHALAMIDE]: 1 nM corresponded to half-maximal inhibition in test [1] (IC50). The “growth inhibition (GI)” value in the test with HCC4017 was “Active”.

`O=C(C#Cc1ccccc1)N/C=C/C[C@H]1C[C@@H](O)CC/C=C/Cc2cccc(C(F)F)c2C(=O)O1`: in test [1], the half-maximal inhibitory concentration (IC50) came out at 500 nM. The “growth inhibition (GI)” value in the test with HCC4017 is “inactive”.

For the compound `O=C(C#Cc1ccccc1)N/C=C/C[C@H]1C[C@@H](O)CC/C=C/Cc2cc(O)ccc2C(=O)O1`, the inhibition entry in the test filed under Bos taurus is “inactive”. Further, the “growth inhibition (GI)” value with HCC4017 is “inactive”.

As for `O=C(C#Cc1ccccc1)N/C=C/C[C@H]1C[C@@H](O)CC/C=C/Cc2cccc(O)c2C(=O)O1`, the IC50 in test [1] stood at 5 nM. In addition, in the test on HCC4017, the “growth inhibition (GI)” value is “Active”.

In test [2], `CC/C=C\C=C/C(=O)N/C=C/C[C@H]1C[C@@H](O)[C@@H](C)C/C=C/Cc2cccc(O)c2C(=O)O1` [SALICYLIHALAMIDE A] had a half-maximal inhibitory concentration (IC50) of less than 1 nM.

The compound `O=C(C#Cc1ccccc1)N/C=C/C[C@H]1C[C@@H](O)CC/C=C/Cc2cc([N+](=O)[O-])ccc2C(=O)O1` yielded an IC50 in test [1] of 300 nM. Also, the “growth inhibition (GI)” value in the test on HCC4017 was “inactive”.

`O=C(C#Cc1ccccc1)N/C=C/C[C@H]1C[C@@H](O)CC/C=C/Cc2cccc(O)c2C(=O)N1` displayed an IC50 in test [1] of 3 nM. For the same compound, the “growth inhibition (GI)” value in the test on HCC4017 was “Active”.

The compound `O=C(C#Cc1ccccc1)N/C=C/C[C@H]1C[C@@H](O)CC/C=C/Cc2cccc([N+](=O)[O-])c2C(=O)O1` came in with a concentration for half-maximal inhibition (IC50) in test [1] of 1000 nM. Besides, the “growth inhibition (GI)” value in the test with HCC4017 is “inactive”.

Consider `O=C(C#Cc1ccccc1)N/C=C/C[C@H]1C[C@@H](O)CC/C=C/Cc2cccc(F)c2C(=O)O1`, for which the half-maximal inhibitory concentration (IC50) in test [1] was 1000 nM. Besides, in the test with HCC4017, the “growth inhibition (GI)” value was “inactive”.

Compound `O=C(C#Cc1ccccc1)N/C=C/C[C@H]1C[C@@H](O)CC/C=C/Cc2cc(F)ccc2C(=O)O1` showed an IC50 in test [1] of 500 nM. The “growth inhibition (GI)” value in the test on HCC4017 is “inactive”.

As to `Nc1cccc2c1C(=O)O[C@@H](C/C=C/NC(=O)C#Cc1ccccc1)C[C@@H](O)CC/C=C/C2`, 300 nM corresponded to half-maximal inhibition in test [1] (IC50). In addition, the “growth inhibition (GI)” value with HCC4017 is “inactive”.
